Results as given in ChEMBL document CHEMBL4004823, “Discovery of Potent and Selective Inhibitors for G9a-Like Protein (GLP) Lysine Methyltransferase” (J Med Chem, 2017).

Legend:
[1] = molecular target: T1, Histone-lysine N-methyltransferase EHMT1 (Homo sapiens, UniProt Q9H9B1); experiment: (§1) Inhibition of recombinant GLP catalytic SET domain (982 to 1266 residues) (unknown origin) expressed in Escherichia coli BL21 (DE3) codon plus RIL assessed as inhibition of methylation activity using biotin-labeled H3 (1 to 25 residues) as substrate and [3H]-SAM after 2 hrs by scintillation proximity assay
T1 sequence (Q9H9B1 whole entry): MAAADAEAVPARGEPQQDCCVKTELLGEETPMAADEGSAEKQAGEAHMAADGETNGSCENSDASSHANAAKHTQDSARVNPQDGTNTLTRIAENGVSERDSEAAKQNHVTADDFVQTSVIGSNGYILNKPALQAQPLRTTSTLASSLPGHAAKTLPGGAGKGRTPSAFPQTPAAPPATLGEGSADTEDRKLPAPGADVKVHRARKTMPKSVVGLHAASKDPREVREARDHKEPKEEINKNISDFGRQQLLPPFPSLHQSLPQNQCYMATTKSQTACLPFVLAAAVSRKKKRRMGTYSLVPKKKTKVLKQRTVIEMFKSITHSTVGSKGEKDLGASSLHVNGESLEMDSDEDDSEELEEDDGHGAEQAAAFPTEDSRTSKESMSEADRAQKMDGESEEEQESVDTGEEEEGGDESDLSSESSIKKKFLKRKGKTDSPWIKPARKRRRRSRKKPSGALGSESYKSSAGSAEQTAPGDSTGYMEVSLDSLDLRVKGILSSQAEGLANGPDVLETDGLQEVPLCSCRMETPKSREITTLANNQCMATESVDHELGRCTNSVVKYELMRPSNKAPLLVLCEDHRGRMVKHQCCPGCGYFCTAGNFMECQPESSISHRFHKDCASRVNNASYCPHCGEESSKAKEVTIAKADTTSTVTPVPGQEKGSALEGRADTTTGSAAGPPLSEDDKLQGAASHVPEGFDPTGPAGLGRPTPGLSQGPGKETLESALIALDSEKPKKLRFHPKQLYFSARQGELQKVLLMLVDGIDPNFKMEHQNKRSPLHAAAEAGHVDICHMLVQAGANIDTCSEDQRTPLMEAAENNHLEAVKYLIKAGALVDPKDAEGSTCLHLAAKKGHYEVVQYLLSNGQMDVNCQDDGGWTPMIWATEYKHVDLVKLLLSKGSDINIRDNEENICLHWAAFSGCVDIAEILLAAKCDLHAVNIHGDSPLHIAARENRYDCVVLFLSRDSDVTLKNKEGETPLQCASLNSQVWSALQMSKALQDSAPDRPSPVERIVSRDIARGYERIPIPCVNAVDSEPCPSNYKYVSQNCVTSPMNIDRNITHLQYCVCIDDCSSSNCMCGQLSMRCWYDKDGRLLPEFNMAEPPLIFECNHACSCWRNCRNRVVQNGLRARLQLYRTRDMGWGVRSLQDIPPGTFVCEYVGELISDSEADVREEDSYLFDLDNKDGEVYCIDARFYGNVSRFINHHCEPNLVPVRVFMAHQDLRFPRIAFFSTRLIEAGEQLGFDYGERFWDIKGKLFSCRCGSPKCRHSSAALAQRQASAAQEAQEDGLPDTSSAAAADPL

[2] = molecular target: T2, Histone-lysine N-methyltransferase EHMT2 (Homo sapiens, UniProt Q96KQ7); experiment: as §1, with “G9a” for “GLP”, “(913” for “(982”, “1193” for “1266”
T2 sequence (Q96KQ7 whole entry): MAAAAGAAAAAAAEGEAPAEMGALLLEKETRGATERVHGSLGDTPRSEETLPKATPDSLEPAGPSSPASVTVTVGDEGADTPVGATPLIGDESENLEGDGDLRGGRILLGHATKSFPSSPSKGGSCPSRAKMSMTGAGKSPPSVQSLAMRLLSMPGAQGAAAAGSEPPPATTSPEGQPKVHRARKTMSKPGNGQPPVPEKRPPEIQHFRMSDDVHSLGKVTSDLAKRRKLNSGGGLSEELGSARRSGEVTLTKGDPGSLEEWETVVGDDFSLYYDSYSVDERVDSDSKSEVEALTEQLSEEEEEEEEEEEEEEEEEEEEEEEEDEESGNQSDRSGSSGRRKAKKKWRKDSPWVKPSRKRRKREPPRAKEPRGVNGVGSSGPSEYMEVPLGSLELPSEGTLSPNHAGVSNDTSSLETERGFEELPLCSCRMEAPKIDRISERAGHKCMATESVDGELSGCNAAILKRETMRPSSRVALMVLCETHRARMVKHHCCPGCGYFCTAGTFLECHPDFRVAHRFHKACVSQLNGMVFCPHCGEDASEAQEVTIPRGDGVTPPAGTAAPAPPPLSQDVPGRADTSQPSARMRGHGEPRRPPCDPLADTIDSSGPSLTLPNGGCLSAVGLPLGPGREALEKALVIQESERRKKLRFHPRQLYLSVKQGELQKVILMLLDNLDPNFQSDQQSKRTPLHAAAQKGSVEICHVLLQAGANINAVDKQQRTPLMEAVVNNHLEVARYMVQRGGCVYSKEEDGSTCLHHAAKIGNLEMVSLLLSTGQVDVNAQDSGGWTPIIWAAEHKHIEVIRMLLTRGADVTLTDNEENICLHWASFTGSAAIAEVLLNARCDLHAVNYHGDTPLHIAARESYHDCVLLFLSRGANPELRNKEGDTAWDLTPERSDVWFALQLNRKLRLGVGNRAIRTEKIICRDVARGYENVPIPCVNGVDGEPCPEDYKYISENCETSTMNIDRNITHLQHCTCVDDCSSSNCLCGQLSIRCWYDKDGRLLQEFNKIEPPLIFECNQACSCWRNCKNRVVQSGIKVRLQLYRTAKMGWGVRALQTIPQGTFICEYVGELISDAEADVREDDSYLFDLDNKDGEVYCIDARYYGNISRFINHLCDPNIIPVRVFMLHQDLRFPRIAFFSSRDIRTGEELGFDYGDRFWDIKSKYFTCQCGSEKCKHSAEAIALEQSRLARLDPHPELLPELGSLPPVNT

[3] = molecular target: T1, Histone-lysine N-methyltransferase EHMT1; experiment: Binding affinity to recombinant GLP catalytic SET domain (982 to 1266 residues) (unknown origin) expressed in Escherichia coli BL21 (DE3) codon plus RIL in presence of SAM by isothermal titration calorimetry
[4] = molecular target: T2, Histone-lysine N-methyltransferase EHMT2; experiment: Binding affinity to recombinant G9a catalytic SET domain (913 to 1193 residues) (unknown origin) expressed in Escherichia coli BL21 (DE3) codon plus RIL in presence of SAM by isothermal titration calorimetry

Structure (SMILES) | IC50 [1] [nM] | IC50 [2] [nM] | Kd [3] [nM] | Kd [4] [nM]
COc1cc2nc(N3CCCCCC3)nc(NC3CCN(C)CC3)c2cc1OC | 16 | 190 | – | –
CCCCCCNc1nc(NC2CCN(C)CC2)c2cc(OC)c(OC)cc2n1 | 7 | 992 | 46 | 610
COc1cc2nc(C3CCCCC3)nc(NC3CCN(C)CC3)c2cc1OC | 34 | 438 | – | –
CCCN1CCC(Nc2nc(N3CCOCC3)nc3cc(OC)c(OC)cc23)CC1 | 11 | 224 | – | –
COc1cc2nc(N3CCCN(C)CC3)nc(NC3CCN(C)CC3)c2cc1OC | 4 | – | – | –
CCOc1cc2nc(N3CCOCC3)nc(NC3CCN(C)CC3)c2cc1OC | > 1000 | > 5000 | – | –
COc1cc2c(NC3CCN(C)CC3)nc(N3CCOCC3)nc2cc1F | > 5000 | > 5000 | – | –
CCCCCNc1nc(NC2CCN(C)CC2)c2cc(OC)c(OC)cc2n1 | 63 | 341 | – | –
COc1cc2c(NC3CCN(C)CC3)nc(N3CCOCC3)nc2cc1C | 29 | 1150 | – | –
COc1cc2nc(N3CCOCC3)nc(NC3CCN(C(C)C)CC3)c2cc1OC | 15 | 262 | – | –
CCCCCCN(C)c1nc(NC2CCN(C)CC2)c2cc(OC)c(OC)cc2n1 | 18 | 311 | – | –
COc1cc2nc(N3CCOCC3)nc(NC3CCN(C)CC3)c2cc1C | 808 | 4070 | – | –
COc1cc2nc(N3CCC(F)(F)CC3)nc(NC3CCN(C)CC3)c2cc1OC | 97 | 1060 | – | –
CCCCCCCNc1nc(NC2CCN(C)CC2)c2cc(OC)c(OC)cc2n1 | 44 | 756 | – | –
CCCCN(C)c1nc(NC2CCN(C)CC2)c2cc(OC)c(OC)cc2n1 | 35 | 407 | – | –
COc1cc2nc(N3CCOCC3)nc(NC3CCN(C)CC3)c2cc1OC | 13 | 440 | 40 | 445
COc1cc2nc(N3CCOCC3)nc(NC3CCN(C)CC3)c2cc1F | 1230 | 3690 | – | –
COc1cc2nc(N3CCOCC3)nc(NC3CCN(C4CC4)CC3)c2cc1OC | 12 | 313 | – | –
COc1cc2nc(N3CCOCC3)nc(NC3CCN(C)CC3)c2cc1OC(C)C | > 5000 | > 5000 | – | –
CCCCCN(C)c1nc(NC2CCN(C)CC2)c2cc(OC)c(OC)cc2n1 | 28 | 306 | – | –
COc1cc2nc(N3CCCC3)nc(NC3CCN(C)CC3)c2cc1OC | 12 | 313 | – | –
CCOc1cc2c(NC3CCN(C)CC3)nc(N3CCOCC3)nc2cc1OC | > 5000 | > 5000 | – | –
COc1cc2c(NC3CCN(C)CC3)nc(N3CCOCC3)nc2cc1OC(C)C | > 5000 | > 5000 | – | –
CCCCNc1nc(NC2CCN(C)CC2)c2cc(OC)c(OC)cc2n1 | 35 | 436 | – | –
COc1cc2nc(N3CCCCC3)nc(NC3CCN(C)CC3)c2cc1OC | 12 | 31 | – | –
CCN1CCC(Nc2nc(N3CCOCC3)nc3cc(OC)c(OC)cc23)CC1 | 26 | 323 | – | –
COc1cc2nc(C3CCOCC3)nc(NC3CCN(C)CC3)c2cc1OC | 341 | 1910 | – | –
